Consider three compounds from paper PMC8156256, “Use of Half-Generation PAMAM Dendrimers (G0.5–G3.5) with Carboxylate End-Groups to Improve the DACHPtCl2 and 5-FU Efficacy as Anticancer Drugs” (Molecules, 2021).

Where two headings read alike, the source gives them in different places.

One series deals with calf thymus DNA (CT-DNA). Briefly: DNA binding study by UV-vis spectroscopy (Benesi-Hildebrand). The following applies: increasing CT-DNA 0-50 µM, 5 mM Tris-HCl/50 mM NaCl pH 7.4, 5 min incubation. As to the method:
The stock solutions of DNA were directly prepared in this buffer. DNA purity was assessed by UV–vis spectroscopy using the absorbance values ratio at 260 nm and 280 nm (it should be between 1.8–1.9 to make sure it is sufficiently protein-free). […] The compounds and the CT-DNA were incubated for 5 min at room temperature. The absorbance was measured in a PerkinElmer UV–vis spectrometer Lambda equipment, using the buffer as blank. […] The intrinsic binding constant, Kb, of the compounds with DNA, was determined using the Benesi–Hildebrand equation [36]: A0/(A−A0) = εG/(εH-G − εG) + εG/(εH-G − εG) × 1/(Kb[DNA]), where Kb is the binding constant, [DNA] is the DNA concentration, A0 and A are the absorbance values of the free compound and compound–DNA complex, and εG and εH-G are their absorption coefficients, respectively. Binding constant values were then obtained from the ratio of the y-intercept to the slope in the plots A0/A−A0 vs. 1/[DNA]. Additionally, the Gibbs free energy (ΔG) associated with the process of DNA binding was calculated using the usual equation: ∆G = −RTlnKb, where T is the temperature in Kelvin and R the gas constant.

Series [1] relates to A2780 ovarian cancer cells. Briefly: MTT cytotoxicity assay, A2780. In kind it is cell-based, human. The following applies: for IC50: MTT, 72 h, read-out: A2780 IC50 ± SD. How it is done:
(§1) Several human cell lines were used in the cytotoxicity evaluation studies, namely: ovarian cancer cells (A2780), cisplatin-resistant ovarian cancer cells (A2780CisR), breast cancer cells (MCF-7), colorectal adenocarcinoma cells (CACO-2), and fibroblast cells (BJ, a non-cancer cell line). All cell lines were cultured in 96-well plates at a seeding density of 1 × 10^4 cells per well with a specific culture medium supplemented with 10% (v/v) fetal bovine serum (FBS) and 1% (v/v) antibiotic–antimycotic solution (AA, 100× solution) at 37 °C, in a humidified atmosphere and 5% CO2. Specific cell culture media were as follows: the A2780 and A2780CisR cell lines were cultured in RPMI 1640 medium supplemented with L-glutamine (2 mM), and 1% (w/v) of cisplatin (100 mM) in the case of A2780CisR cells (cisplatin was only used in the subculturing process before the cytotoxicity assays); the MCF-7 cell line was cultured in RPMI 1640 medium supplemented with 1 mM sodium pyruvate, 1% (v/v) nonessential amino acids (NEAA, 100× solution), and human insulin 3.3 µg/mL; the CACO-2 cell line was cultured in MEM medium supplemented with 1% (v/v) NEAA; the BJ cell line was cultured in D-MEM medium. After 24 h in culture, cells were incubated with the compounds under testing prepared in nuclease-free water. In all cases, 100 µL of the compound solution was used for a total volume of 200 µL in the well. The metallodendrimers cytotoxicity was evaluated using all the mentioned cell lines at the concentrations of 0.01, 0.03, 0.1, 0.5, 1, 2.5, 5, and 10 µM. Pristine anionic PAMAM dendrimers (G0.5–3.5) were used as controls. The cytotoxicity of the metallodendrimer G2.5COO(DACHPt)16/5-FU was evaluated using A2780CisR, and CACO-2 cells at the concentrations of 0.01, 0.2, 1, 5, 10 and 20 µg/mL, and G2.5(COONa)32/5-FU and free 5-FU were used as controls. After 72 h of incubation with the compounds under testing, the culture medium was replaced by new culture medium containing 10% (v/v) of a MTT (3-(4,5-dimethylthiazol-2-yl)-2,5-diphenyltetrazolium bromide) solution (0.5 mg/mL). After 3 h of incubation, the culture medium was aspirated, and the formed formazan crystals were dissolved in 100 µL of DMSO. Absorbance intensity was measured at 550 nm in a microplate reader (Victor3 1420, Perkin Elmer, Waltham, MA, USA). Three independent experiments with three replicas each were carried out. The concentration that inhibited 50% of the cellular metabolic activity (IC50) was determined by linear interpolation between the two experimental points closer to the point correspondent to 50% of the control’s cellular metabolic activity. Results are presented as the mean ± standard deviation (SD).

The test system of series [2] is A2780CisR cisplatin-resistant ovarian cancer cells. Briefly: MTT cytotoxicity assay, A2780cisR. In kind it is cell-based, human. Particulars: for Resistance Factor (Rf): IC50 A2780CisR / IC50 A2780; for IC50: MTT, 72 h, for 5-FU loaded systems MW includes the estimated number of 5-FU molecules, read-out: A2780cisR IC50 ± SD. How it is done: as §1
Series [3] relates to BJ fibroblast cells (non-cancer cell line). Nature of the series: MTT cytotoxicity assay, BJ. The series is classed as cell-based, human. Particulars: 72 h, read-out: BJ IC50 ± SD. How it is done:
Several human cell lines were used in the cytotoxicity evaluation studies, namely: ovarian cancer cells (A2780), cisplatin-resistant ovarian cancer cells (A2780CisR), breast cancer cells (MCF-7), colorectal adenocarcinoma cells (CACO-2), and fibroblast cells (BJ, a non-cancer cell line). All cell lines were cultured in 96-well plates at a seeding density of 1 × 10^4 cells per well with a specific culture medium supplemented with 10% (v/v) fetal bovine serum (FBS) and 1% (v/v) antibiotic–antimycotic solution (AA, 100× solution) at 37 °C, in a humidified atmosphere and 5% CO2. […] The metallodendrimers cytotoxicity was evaluated using all the mentioned cell lines at the concentrations of 0.01, 0.03, 0.1, 0.5, 1, 2.5, 5, and 10 µM. […] The cytotoxicity of the metallodendrimer G2.5COO(DACHPt)16/5-FU was evaluated using A2780CisR, and CACO-2 cells at the concentrations of 0.01, 0.2, 1, 5, 10 and 20 µg/mL, and G2.5(COONa)32/5-FU and free 5-FU were used as controls. […] Absorbance intensity was measured at 550 nm in a microplate reader (Victor3 1420, Perkin Elmer, Waltham, MA, USA). […]
On the technique in general: Formazan colour is commonly taken as a measure of viable cells.

For series [4], the system named is MCF-7 breast cancer cells. Briefly: MTT cytotoxicity assay, MCF-7. The series is classed as cell-based, human. Particulars: for IC50: MTT, 72 h, read-out: MCF-7 IC50 ± SD. How it is done:
as §1

A further series deals with red blood cells. Nature of the series: Hemotoxicity (hemolysis) assay, cyanmethemoglobin method. The series is classed as cell-based. Particulars: human blood; for hemolysis percentage (release of hemoglobin): 3 h, 37 °C, 5 µM. How it is done:
Human blood from healthy donors was collected in tubes containing EDTA and used to evaluate the compounds’ hemotoxicity under testing towards red blood cells by the cyanmethemoglobin method. The total hemoglobin concentration in the original blood was determined starting from a 250-fold dilution of blood in cyanmethemoglobin reagent (the C reagent was prepared in an amber bottle with 50 mg of potassium ferricyanide, 12.5 mg of potassium cyanide, and 35 mg of potassium dihydrogen phosphate in 250 mL of distilled water with 250 µL of Triton-X; its pH was adjusted to 7.4). A standard curve for hemoglobin was then prepared with hemoglobin from bovine blood (Figure S34). Briefly, a stock solution of the protein (1.5 mg/mL) was first prepared in C reagent, from which serial dilutions were performed to obtain standards of known concentration (in the range 0.20 to 1.4 mg/mL). Absorbance was then measured at 550 nm, and the C reagent was used as blank. The total hemoglobin concentration was determined using this standard curve, taking into consideration the initial dilution. For hemotoxicity evaluation of the compounds under testing, a 10% (v/v) blood solution was prepared in PBS (Mg^2+/Ca^2+ free). Then, 10 µL of this blood solution was added to several microtubes containing 70 µL of compound solution (at the concentrations 0.1, 1, and 5 µM); for controls, microtubes with 70 µL of distilled water (positive control) and 70 µL of PBS (negative control) were also prepared. After, the microtubes were incubated at 37 °C for 3 h and subsequently centrifuged at 3800 rpm for 10 min. In the end, 40 µL of each supernatant were transferred to 96-well plates, 160 µL of C reagent was added, and absorbance was measured at 550 nm. The concentration of hemoglobin in the supernatants was then determined using the same standard curve and considering the performed dilutions. The results are presented as a percentage of hemolysis (mean of three independent assays) ± standard deviation (SD). A Perkin Elmer VICTOR^3™ Multilabel Reader spectrophotometer was used in this assay.

Series [5] has as its system CACO-2 colorectal adenocarcinoma cells. Briefly: MTT cytotoxicity assay, CACO-2. Particulars: for 5-FU loaded systems MW includes the estimated number of 5-FU molecules, read-out: CACO-2 IC50 ± SD. In kind it is cell-based, human.
Procedure: All cell lines were cultured in 96-well plates at a seeding density of 1 × 10^4 cells per well with a specific culture medium supplemented with 10% (v/v) fetal bovine serum (FBS) and 1% (v/v) antibiotic–antimycotic solution (AA, 100× solution) at 37 °C, in a humidified atmosphere and 5% CO2. […] After 24 h in culture, cells were incubated with the compounds under testing prepared in nuclease-free water. In all cases, 100 µL of the compound solution was used for a total volume of 200 µL in the well. The metallodendrimers cytotoxicity was evaluated using all the mentioned cell lines at the concentrations of 0.01, 0.03, 0.1, 0.5, 1, 2.5, 5, and 10 µM. Pristine anionic PAMAM dendrimers (G0.5–3.5) were used as controls. The cytotoxicity of the metallodendrimer G2.5COO(DACHPt)16/5-FU was evaluated using A2780CisR, and CACO-2 cells at the concentrations of 0.01, 0.2, 1, 5, 10 and 20 µg/mL, and G2.5(COONa)32/5-FU and free 5-FU were used as controls. After 72 h of incubation with the compounds under testing, the culture medium was replaced by new culture medium containing 10% (v/v) of a MTT (3-(4,5-dimethylthiazol-2-yl)-2,5-diphenyltetrazolium bromide) solution (0.5 mg/mL). After 3 h of incubation, the culture medium was aspirated, and the formed formazan crystals were dissolved in 100 µL of DMSO. […] Three independent experiments with three replicas each were carried out.
[6] abbreviates: IC50 oxaliplatin / IC50 compound.

For the compound `O=C1[O][Pt]2([NH][C@@H]3CCCC[C@H]3[NH]2)[O]C1=O` [Oxaliplatin, [(1R,2R)-cyclohexane-1,2-diamine] (ethanedioato-O,O′)platinum(II)], the “Change in Absorbance” value in the series with calf thymus DNA (CT-DNA) is recorded as “Hyperchromism”. Also, the IC50 is 0.48 ± 0.03 µM in series [1], 3.5 ± 0.5 µM in series [2], greater than 10 µM in series [3] and greater than 10 µM in series [4]. In series [2], the “Resistance Factor (Rf)” value turned out to be 7.2. In addition, in the series with red blood cells, the “hemolysis percentage (release of hemoglobin)” value was “around 12%”.

For “trans-(R,R)-1,2-diaminocyclohexanedichloroplatinum(II) [DACHPtCl2]”, the “Change in Absorbance” value with calf thymus DNA (CT-DNA) was “Hyperchromism”. Moreover, the “Selectivity Index (SI) A2780” value in series [1] (IC50 BJ / IC50 A2780) is greater than 32. The “Relative Potency (RP) A2780” value in series [1] (setting [6]) stood at 1.7. In addition, the half-maximal inhibitory concentration (IC50) is 0.3 ± 0.2 µM in series [1]; greater than 10 µM in series [5] (72 h); 1.7 ± 0.4 µM in series [2]; greater than 9 µM in series [3]; 5 ± 2 µM in series [4]. Also, in series [2], the “Resistance Factor (Rf)” value came out at 6.2. Further, in series [2] (IC50 BJ / IC50 A2780CisR), the “Selectivity Index (SI) A2780CisR” value was greater than 5.2. The “Relative Potency (RP) A2780CisR” value in series [2] (setting [6]) amounted to 2. In addition, the “Selectivity Index (SI) MCF-7” value in series [4] (IC50 BJ / IC50 MCF-7) was greater than 1.7. The “Relative Potency (RP) MCF-7” value in series [4] (setting [6]) was greater than 1.9. The “hemolysis percentage (release of hemoglobin)” value in the series with red blood cells is 7–10%.

Turning to `O=c1[nH]cc(F)c(=O)[nH]1` [5-FU, 5-fluoro-1H-pyrimidine-2,4-dione], the concentration for half-maximal inhibition (IC50) in series [5] (Homo sapiens, Caco-2, 72 h) was greater than 154 µM; in series [2] (Homo sapiens, A2780cisR), greater than 154 µM. Further, the hemolysis at 3 h with red blood cells (concentrations 0.1 and 1 µg/mL) is roughly 5%.

The term IC50 denotes the concentration that gives 50% inhibition.
